For 27 molecules, IC50 results are on record in patent publication US7777035B2, “Azaindazole compounds and methods of use” (Chemocentryx, Inc., priority 2005, dated 2010).

Usually IC50 stands for the concentration needed to halve the response being measured.

For this experiment, the target named is T1, CCR1 (Homo sapiens, UniProt P32246).
T1 construct: host or cells: THP-1 cells or monocytes isolated from human buffy coats
T1 sequence (P32246 1-355): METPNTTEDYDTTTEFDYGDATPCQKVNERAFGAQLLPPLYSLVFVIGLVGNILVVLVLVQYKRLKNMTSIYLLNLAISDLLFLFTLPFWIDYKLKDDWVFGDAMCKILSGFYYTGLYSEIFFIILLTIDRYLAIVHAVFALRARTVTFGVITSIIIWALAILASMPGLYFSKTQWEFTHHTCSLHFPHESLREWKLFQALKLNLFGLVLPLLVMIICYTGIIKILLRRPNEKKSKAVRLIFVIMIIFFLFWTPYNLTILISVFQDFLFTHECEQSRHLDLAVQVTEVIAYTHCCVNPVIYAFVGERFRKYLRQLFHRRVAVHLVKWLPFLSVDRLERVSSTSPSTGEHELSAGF
Kind of experiment: CCR1 chemotaxis assay or binding assay (activity given for either). Conditions: either the chemotaxis assay or binding assay; CCR1 expressing cells (THP-1 or human monocytes); read-out: Activity (IC50 class). The method, then:
Cells were grown under 5% CO2/95% air, 100% humidity at 37° C. and subcultured twice weekly at 1:5 (cells were cultured at a density range of 2×10^5 to 2×10^6 cells/mL) and harvested at 1×10^6 cells/mL. THP-1 cells express CCR1 and can be used in CCR1 binding and functional assays.
Monocytes were isolated from human buffy coats using the Miltenyi bead isolation system (Miltenyi, Auburn, Calif.). Briefly, following a Ficoll gradient separation to isolate peripheral blood mononuclear cells, cells were washed with PBS and the red blood cells lysed using standard procedures. Remaining cells were labeled with anti-CD14 antibodies coupled to magnetic beads (Miltenyi Biotech, Auburn, Calif.). Labeled cells were passed through AutoMACS (Miltenyi, Auburn, Calif.) and positive fraction collected. Monocytes express CCR1 and can be used in CCR1 binding and functional assays.
CCR1 expressing cells were centrifuged and resuspended in assay buffer (20 Mm HEPES pH 7.1, 140 Mm NaCl, 1 Mm CaCl2, 5 Mm MgCl2, and with 0.2% bovine serum albumin) to a concentration of 5×10^6 cells/mL for THP-1 cells and 5×10^5 for monocytes. Binding assays were set up as follows. […] Reactions were aspirated onto GF/B glass filters pre-soaked in 0.3% polyethyleneimine (PEI) solution, on a vacuum cell harvester (Packard Instruments; Meriden, Conn.). Scintillation fluid (40 μl; Microscint 20, Packard Instruments) was added to each well, the plates were sealed and radioactivity measured in a Topcount scintillation counter (Packard Instruments). Control wells containing either diluent only (for total counts) or excess MIP-1α or MIP-1β (1 μg/mL, for non-specific binding) were used to calculate the percent of total inhibition for compound. The computer program Prism from GraphPad, Inc. (San Diego, Calif.) was used to calculate IC50 values.
Chemotaxis assays were performed using 5 ┌ m pore polycarbonate, polyvinylpyrrolidone-coated filters in 96-well chemotaxis chambers (Neuroprobe; Gaithersburg, Md.) using chemotaxis buffer (Hank's balanced salt solution (HBSS) and 1% FBS). CCR1 chemokine ligands (i.e., MIP-1α, CCL15/Leukotactin; R&D Systems; Minneapolis, Minn.) are use to evaluate compound mediated inhibition of CCR1 Mediated migration. Other chemokines (i.e., SDF-1α; R&D Systems; Minneapolis, Minn.) are used as specificity controls. […] The chambers were incubated 1-2 hours at 37° C., and the number of cells in the lower chamber quantified either by direct cell counts in five high powered fields per well or by the CyQuant assay (Molecular Probes), a fluorescent dye method that measures nucleic acid content and microscopic observation.
THP-1 cells and monocytes lack other chemokine receptors that bind the same set of chemokine ligands as CCR1 (i.e., MIP-1α, MPIF-1, Leukotactin, etc.). Equal numbers of cells were added to each well in the plate. The cells were then incubated with radiolabeled MIP-1α. Unbound ligand was removed by washing the cells, and bound ligand was determined by quantifying radioactive counts. […] Percent inhibition was determined by the equation: […]
In the assay, the amount of compound was varied; while cell number and ligand concentration were held constant.
One of the primary functions of chemokines is their ability to mediate the migration of chemokine receptor-expressing cells, such as white blood cells. […] THP-1 Myelomonocytic leukemia cells, which resemble monocytes, as wells as freshly isolated monocytes, were used as targets for chemoattraction by CCR1 chemokine ligands (i.e., MIP-1α, CCL15/leukotactin). […] In this assay, the amount of compound was varied; while cell number and chemokine agonist concentrations were held constant. After the chemotaxis chambers were incubated 1-2 hours at 37° C., the responding cells in the lower chamber were quantified by labeling with the CyQuant assay (Molecular Probes), a fluorescent dye method that measures nucleic acid content, and by measuring with a Spectrafluor Plus (Tecan).
Regarding `COc1cc(N2CCN(C(=O)Cn3nc(N)c4ccc(C)nc43)CC2)ccc1Cl` [Compound 1.055], the IC50 is less than 1000 nM.
To `COc1cc(N2CCN(C(=O)Cn3nc(-c4ncon4)c4cccnc43)[C@@H](C)C2)c(F)cc1Cl` [Compound 1.056] belongs less than 1000 nM; to `COc1cc(N2CCN(C(=O)Cn3nc(C(=N)NO)c4cccnc43)CC2)ccc1Cl` [Compound 1.057], less than 1000 nM.
Turning to `COc1cc(N2CCN(C(=O)Cn3nc(-c4ncon4)c4cccnc43)CC2)ccc1Cl` [Compound 1.058], the IC50 was less than 1000 nM.
To `COc1cc(N2CCN(C(=O)Cn3nc(-c4noc(C)n4)c4cccnc43)CC2)ccc1Cl` [Compound 1.059] belongs less than 1000 nM; to `COc1cc(N2CCN(C(=O)Cn3ncc4ccc(NC(C)=O)nc43)CC2)ccc1Cl` [Compound 1.060], less than 1000 nM; to `COc1cc(N2CCN(C(=O)Cn3nc(S(C)(=O)=O)c4cccnc43)CC2)ccc1Cl` [Compound 1.061], less than 1000 nM.
In the case of `COc1cc(N2CCN(C(=O)Cn3nc(CN)c4cccnc43)CC2)ccc1Cl` [Compound 1.062], the IC50 fell in the range of 1000 to 2500 nM.
Take `COc1cc(N2CCN(C(=O)Cn3nc(I)c4cccnc43)CC2)ccc1Cl` [Compound 1.063]: the IC50 was less than 1000 nM.
As for `COc1cc(N2CCN(C(=O)Cn3nc(I)c4cccnc43)[C@@H](C)C2)c(F)cc1Cl` [Compound 1.064], the IC50 is less than 1000 nM.
Regarding `CCOc1cc(N2CCN(C(=O)Cn3nc(-c4ncc[nH]4)c4cccnc43)CC2)c(F)cc1Cl` [Compound 1.065], the IC50 is less than 1000 nM.
`O=C(Cn1nc(-c2ncc[nH]2)c2cccnc21)N1CCN(c2cc(OCCF)c(Cl)cc2F)CC1` [Compound 1.066]: the IC50 is less than 1000 nM.
With `CCOc1cc(N2CCN(C(=O)Cn3nc(-c4ncc[nH]4)c4cccnc43)CC2)ccc1Cl` [Compound 1.067] the figure was less than 1000 nM; with `COc1cc(N2CCN(C(=O)Cn3nc(-c4ncc[nH]4)c4cccnc43)CC2)c(F)cc1Cl` [Compound 1.068], less than 1000 nM.
With `COc1cc(N2CCN(C(=O)Cn3nc(-c4ncc[nH]4)c4cccnc43)[C@@H](C)C2)ccc1Cl` [Compound 1.069], the IC50 is less than 1000 nM.
With `COc1cc(N2CCN(C(=O)Cn3nc(-c4ncc[nH]4)c4cccnc43)[C@@H](C)C2)c(F)cc1Cl` [Compound 1.070], the IC50 is less than 1000 nM.
For the molecule `COc1cc(N2CCN(C(=O)Cn3nc(-c4ncc[nH]4)c4cccnc43)C[C@H]2C)ccc1Cl` [Compound 1.071], the IC50 was less than 1000 nM.
To `COc1cc(N2CCN(C(=O)Cn3nc(-c4ncc[nH]4)c4cccnc43)C[C@@H]2C)ccc1Cl` [Compound 1.072] belongs less than 1000 nM; to `COc1cc(N2CCN(C(=O)Cn3nc(-c4ncc[nH]4)c4cccnc43)[C@H](C)C2)ccc1Cl` [Compound 1.073], less than 1000 nM.
On to `CCOc1cc(N2CCN(C(=O)Cn3nc(-c4ncc[nH]4)c4cccnc43)[C@@H](C)C2)ccc1Cl` [Compound 1.074], for which the IC50 was less than 1000 nM.
For the molecule `O=C(Cn1nc(-c2ncc[nH]2)c2cccnc21)N1CCN(c2ccc(Cl)c(OCCF)c2)CC1` [Compound 1.075], the IC50 is less than 1000 nM.
`C[C@H]1CN(c2ccc(Cl)c(OCCF)c2)CCN1C(=O)Cn1nc(-c2ncc[nH]2)c2cccnc21` [Compound 1.076]: the half-maximal inhibitory concentration (IC50) is less than 1000 nM.
As for `Cc1cc(N2CCN(C(=O)Cn3nc(-c4ncc[nH]4)c4cccnc43)CC2)ccc1Cl` [Compound 1.077], the IC50 is less than 1000 nM.
With `O=C(Cn1nc(-c2ncc[nH]2)c2cccnc21)N1CCN(c2ccc(Cl)c(C(F)(F)F)c2)CC1` [Compound 1.078], the IC50 was in the range of 2500 to 12500 nM.
For `O=C(Cn1nc(-c2ncc[nH]2)c2cccnc21)N1CCN(c2ccc(Cl)c(OC(F)(F)F)c2)CC1` [Compound 1.079], the IC50 is less than 1000 nM.
With `COc1cc(N2CCN(C(=O)Cn3nc(-c4ncc[nH]4)c4cccnc43)CC2)ccc1Cl` [Compound 1.080] the figure was less than 1000 nM; with `COc1cc(N2CCN(C(=O)Cn3nc(-c4nccn4C)c4cccnc43)CC2)ccc1Cl` [Compound 1.081], less than 1000 nM.
